From patent publication US9066516B2, “Uses of thaxtomin and thaxtomin compositions as herbicides” (priority 2008, dated 2015)

Columns and labels:
pigweed (Amaranthus sp.) = assay: Pot study, % control of pigweed (Example 2); type: in vivo; conditions: 1.0 mg/mL
Experimental: A pot study is conducted to test the phytotoxicity of thaxtomin A on corn (Zea mays var. Early Sunglow) and wheat (Triticum aestivum var. PR1404). To confirm the activity on broadleaf weeds, pigweed (Amaranthus sp.) is planted in the same pot with either three corn or five wheat seeds, and sprayed simultaneously with the cereal test plants. The less than 3-inch tall plants grown under growth lights (12-h light/12-h dark) at 28° C. are sprayed with thaxtomin A solutions derived from a liquid culture of S. acidiscabies containing 0.5, and 1.0 mg thaxtomin A per mL of solvent (4% ethanol and 0.2% non-ionic surfactant). A solution of 4% ethanol +0.2% non-ionic surfactant without thaxtomin A is used as a control treatment. Each treatment is conducted in three replicates. Treated plants are kept at 28° C. under growth lights and observed at three time points—7, 14 and 21 days after treatment—for visual symptoms of phytotoxicity on corn and wheat and % control of pigweed.

redstem = assay: Field study on rice, weed count (Example 6); type: in vivo; conditions: Thaxtomin A 180 g/acre; per plot
Experimental: (§1) The efficacy of thaxtomin A derived from a liquid culture of S. acidiscabies is tested in a field study on rice using 4.9 sq-ft plots surrounded by a metal ring. Treatments with either thaxtomin A or thaxtomin A in combination with lemongrass oil (formulated as GreenMatch EX) or cyhalofop (formulated as Clincher CA) were done using a hand-held sprayer with a water volume corresponding to 57 gallons per acre. Rice (variety M209) was grown until maturity and harvested by hand for yield and weed count assessment. Results of yield (kg/ha), and numbers of redstem, small-flower umbrella sedge, and sprangletop in each plot are presented in Table 3 below.

[1] = test system: small-flower umbrella sedge; assay: Field study on rice, weed count (Example 6); type: in vivo; conditions: Thaxtomin A 180 g/acre, per plot
Experimental: as §1

sprangletop = assay: Field study on rice, weed count (Example 6); type: in vivo; conditions: Thaxtomin A 180 g/acre, per plot
Experimental: as §1

ragweed = assay: Greenhouse synergy test MBI-005 + commercial herbicides (Example 11); type: in vivo; conditions: 14 days
Experimental: The test species barnyard grass, ragweed, sedge, and broad-leaf mustard were used for the valuation of synergy between MBI-005 and the rice herbicides clomazone, penoxsulam, cyhalofop, fenoxaprop-p-ethyl, bispyribac-sodium, thiobencarb, and propanil.
[…] other herbicides commonly used for field crops, glyphosate, glufosinate, synthetic version of bialaphos, and mesotrione were also tested for synergy with MBI-005 on crabgrass and ragweed.
There were 3 replicates per treatment which were sprayed with approximately ⅔ ml per replicate. The treatments were completely randomized and kept in a greenhouse at 25° C. The efficacy was rated at 7 and 14 days post treatment.

Bluegrass (Poa annua) = assay: Pre-emergence test of MBI-005, lab & field (Example 12); type: in vivo; conditions: pre-emergent; further: ranges in brackets are in %
Experimental: (§2) To further describe the spectrum of pre-emergence activity, tests were conducted in laboratory and field conditions. In laboratory testing, 35 seeds were placed on a ring of blotter paper inside a 3 cm petri dish and supplied with 4 ml of MBI-005 (≦0.1 mg MBI-005/ml). Water was used as a negative control and oryzalin applied as a positive control. Petri dishes were randomly placed in a growth room at 25° C. and 50% RH. Treatments were replicated three times and germinated seeds were counted 7 and 14 days after application; water was added as necessary to maintain moisture levels inside each petri dish.
(§3) In field testing, field soil containing weed seeds were treated with 38.2 L MBI-005/ha at a spray volume of 280 L/ha using a CO2 sprayer with flat fan nozzles. Treatments, including water as the negative control and Gallery as the positive control, were replicated four times and applied twice at a four week interval. Treatments were evaluated visually as % cover and above-ground fresh weights per container were taken.

[2] = test system: Crabgrass (Digitaria sanguinalis); assay: as above; type: in vivo; conditions: pre-emergent; further: ranges in brackets are in %
Experimental: as §2, §3

crabgrass = assay: Post-emergent MBI-005 + Atrazine on crabgrass (Example 17); type: in vivo; conditions: for AVG E (visual % damage): 7DAT; for AVG/ E (visual % damage): 14DAT
Experimental: Ten seedlings in 2.5 cm square pots containing plant growth mix were sprayed with two suboptimal rates of MBI-005, and 35% of the atrazine label rate (0.3 gallons/A), or a combination thereof, at a volume of 40 gal/A using a cabinet track sprayer. Negative controls were sprayed with water. Pots were randomly placed in a growth room at 25° C. and 50% RH, and watered as necessary. Treatments were replicated five times and evaluated at 7 and 14 days for visual % damage, with 0% indicating no damage and 100% indicating plant death.
Synergy was calculated as the ratio of observed (E) to expected (E/Ee) percent control using Colby's formula.

[3] = in vivo; cited from earlier work
[4] = 12.5% MBI-005 Label Rate (0.125 mg/mL)
[5] = 25% MBI-005 Label Rate (0.25 mg/mL)

In the case of `CN1C(=O)[C@](O)(Cc2cccc(O)c2)N(C)C(=O)[C@@H]1Cc1c[nH]c2cccc([N+](=O)[O-])c12` [thaxtomin A], the control of pigweed (pigweed (Amaranthus sp.)) is reported as “complete control”, the “# of redstem” value (redstem) is reported as 0.5b and the “# of sedge” value ([1]; listed as Thaxtomin A) is reported as 1.0a. The “# of sedge” value ([1]; listed as thaxtomin) was “significantly reduced the number of sedges”, the “# of sprangletop” value (sprangletop; listed as Thaxtomin A) was 76.0a and the “# of sprangletop” value (sprangletop; listed as thaxtomin) was “no effect”. For the same compound, the “% Control MBI-005” value (ragweed; MBI-005 0.125 mg/mL (bispyribac-sodium line)) was 23.3%, the “% Control MBI-005” value (ragweed; MBI-005 0.125 mg/mL (glufosinate line)) was 37.5% and the “% Control MBI-005” value (ragweed; MBI-005 0.125 mg/mL (glyphosate line)) was 6.7%. The “Rating at 0.1 mg/ml (Reduction of Germination)” value (Bluegrass (Poa annua)) was “++++ (95-100)”, the “Rating at 0.1 mg/ml (Reduction of Germination)” value [2] was “++++ (95-100)” and the “AVG E (visual % damage)” value (crabgrass; [4]) was 10.0%. The “AVG E (visual % damage)” value (crabgrass; [5]) was 11.9%, the “AVG/ E (visual % damage)” value (crabgrass; [4]) was 10.0% and the “AVG/ E (visual % damage)” value (crabgrass; [5]) was 11.9%. The “activity as pre and post emergent, non-systemic herbicides” value [3] was “marked activity”.
